“Also recorded” adds a separate entry of the source.
Key:
CCR5 = CCR5 (Homo sapiens, UniProt P51681); conditions: Jiao 2018; cited from earlier work
[1] = system: metastatic HER2+ breast cancer; assay: Single patient emergency use IND: CT/MRI imaging of metastases; type: in vivo, human; conditions: Patient A, 700 mg weekly
Text: This subject, Patient A, is a person with a diagnosis of metastatic breast cancer, stage IV. The subject previously received Taxotere/Herceptin/Pertuzumab as frontline therapy for metastatic HER2 positive breast cancer. They had partial response for their systemic disease, but then developed diffuse brain metastases (systemic disease stable). They completed whole-brain radiation therapy and continues on Herceptin and Pertuzumab. They have neuropathy and residual side effects from chemotherapy, which limits use of current second-line options due to concern for side effects.
Prior to enrolling in the trial, the patient had 18 identifiable tumor spots in the brain.

[2] = system: MDA-MB-231 cells expressing Luc2-eGFP (MDA-MB-231.pFLUG); assay: Breast cancer tumor / lung metastasis model in mice, bioluminescence imaging; type: in vivo, female NCI Athymic NCr-nu/nu mice
Description: Each mouse received one million (10^6) MDA-MB-231 cells expressing Luc2-eGFP (called MDA-MB-231.pFLUG) through the tail vein. […] Treatment was started one day before the injection.
In vivo bio-luminescence imaging was performed following intraperitoneal injection with 100 μl of D-luciferin (30 mg/mL) to the control and treated groups. […] FIG. 1D is a plot of the percentage of mice with tumors.

[3] = system: CCR5+ metastatic Triple Negative Breast Cancer (mTNBC); assay: Phase Ib/II mTNBC study: tumor imaging scans; type: in vivo, human; conditions: Patient D, with carboplatin
Text: (§1) The primary objective of Phase 1b is to determine the safety, tolerability, and maximum tolerated dose (MTD) of PRO 140 in patients with TNBC, when combined with carboplatin to define a recommended Phase II dose of the combination. The primary objective of phase 2b is to evaluate the impact on progression-free survival (PFS) of the combination of PRO 140 and carboplatin in patients with CCR5+ TNBC previously treated with anthracyclines and taxanes in a neoadjuvant and adjuvant setting. For further investigational plan details please refer to section 5.3.5 in SNO01 (IND 141723).
(§2) Each treatment cycle consisted of 21 days. […] This treatment regimen was used for all subjects enrolled in the mTNBC study, unless otherwise indicated.
Scans were taken at the end of every two cycles (every 6 weeks). The subject had Scan 1 after six weeks, Scan 2 after 12 weeks, and Scan 3 after 18 weeks (Table 4).

CTC and EMT = assay: Single patient emergency use IND: CTC and EMT counts; type: in vivo, human; conditions: Patient A, 700 mg weekly, approximately ten weeks after initiation
Description: Approximately ten weeks following the initiation of treatment, the subject's CTC and EMT counts were measured, and zero CTCs and zero EMTs were identified. Lesion and nodule sizes were measured in the breast and liver of Patient A and metastases were also qualitatively described (FIG. 6). Protein expression levels of CCR5 (FIG. 7A) and PD-L1 (FIG. 7B) on individual CAMLs from Patient A were measured by flow cytometry and reported as Mean Fluorescence Intensity (MFI). CCR5 MFI (“CCR5 INT”) was calculated by subtracting background signal of a negative control sample from the experimental value. CAML size was also measured and reported in […].

HIV-1 = conditions: at concentrations that do not affect CCR5 chemokine receptor activity; Olson 1999, Trkola 2001; cited from earlier work
[4] = system: circulating tumor cells (CTC), epithelial mesenchymal transition cells (EMTs) and cancer-associated macrophage-like cells (CAMLs); assay: Phase Ib/II mTNBC study: CTC, EMT and CAML counts in blood (LifeTrac Assay, CellSieve filtration); type: in vivo, human; conditions: for Number of CTCs (PD-L1) / Number of Apoptotic CTCs (CCR5) / Number of CAMLs (CCR5) / Number of CAMLs (PD-L1) / Number of CTCs (CCR5) / Number of EMTs (CCR5) / Number of EMTs (PD-L1) / CAML- Total / EMT-Total / Number of Apoptotic CTC (PD-L1) / CTC-Total: Patient D; for Number of CTCs (PD-L1): baseline 0; for Number of Apoptotic CTCs (CCR5) / Number of CAMLs (CCR5) / Number of CAMLs (PD-L1) / Number of CTCs (CCR5) / Number of EMTs (CCR5) / Number of EMTs (PD-L1): baseline 1; for CAML- Total / EMT-Total: baseline 2; for Number of Apoptotic CTC (PD-L1): baseline 3; for CTC-Total: baseline 5
Text: as §1, §2
The blood sample for circulating tumor cells (CTC) and cancer-associated macrophage-like cells (CAMLs) assessment was collected at baseline and subsequently at Day 1 of each treatment cycle to assess changes in CTCs and CAMLs after treatment and to perform correlative analysis between CCR5 expression and PD-L1 expression.
Creatv Microtech has developed a size-based technology and detection methodology (LifeTrac Assay) that enables the collection and characterization of all cancer-associated cells in the blood i.e., CTCs, epithelial mesenchymal transition cells (EMTs) and CAMLs [Adams Cytometry 2015, Adams RSC 2014]. The CellSieve™ filtration platform is used to capture CAMLs and CTCs.

[5] = Phase Ib/II mTNBC study: adverse events; type: in vivo; conditions: Patient D, weekly 350 mg leronlimab + carboplatin every three weeks, up to Cycle 6 Day 1 visit
Text: as §1, §2

CCR5, sequence (P51681 whole entry): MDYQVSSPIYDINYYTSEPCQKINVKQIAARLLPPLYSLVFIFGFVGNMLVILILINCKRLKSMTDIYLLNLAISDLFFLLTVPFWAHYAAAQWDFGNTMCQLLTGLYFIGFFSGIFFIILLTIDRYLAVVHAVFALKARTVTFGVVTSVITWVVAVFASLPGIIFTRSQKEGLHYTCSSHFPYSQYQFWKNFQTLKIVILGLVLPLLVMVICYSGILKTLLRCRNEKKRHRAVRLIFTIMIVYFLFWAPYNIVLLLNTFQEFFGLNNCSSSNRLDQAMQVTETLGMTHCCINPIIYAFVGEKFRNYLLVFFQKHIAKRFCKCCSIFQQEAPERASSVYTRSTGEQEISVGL

## COC[C@@H](c1ccc(C(F)(F)F)cc1)N1CCN(C2(C)CCN(C(=O)c3c(C)ncnc3C)CC2)C[C@@H]1C [vicriviroc]
CCR5
  Cell killing mediated by DNA-damaging chemotherapeutic agents: dramatically enhanced

## leronlimab: humanized monoclonal anti-CCR5 antibody, humanized version of the murine mAb PA14
[1]; approximately four weeks after initial treatment
  New metastatic spots in the liver, lung and brain (CT scan): no sign of new metastatic spots
[1]; approximately two months
  Reduction in tumor volume of the largest brain tumor: 56%
[1]; approximately two months after initial treatment
  New metastasis in the brain: no new metastasis was detectable
[1]; approximately two months, 18 identifiable tumor spots before
  Identifiable lesions in the brain: three
[2]; mouse, in vivo
  Tumor volume in a breast cancer tumor model: significant reduction
[3]; Scan 3
  New lung nodules: no new lung nodules found
  New lymphadenopathy or metastatic disease on diagnostic CT chest, abdomen and pelvis: No new
  Previously identified right hilar lymph node: resolved
[3]; Scan 3, previously 15.3
  Right lung metastasis maximum standardized uptake values (SUVs): values (SUVs) of 6.8 (previously
[3]; scan 3 vs previous 2.4×1.9
  Decrease in size of target lesion: 20%
CTC and EMT
  CTC count: zero
  EMT count: zero
HIV-1
  HIV-1 entry and replication: potently inhibits
[4]; Patient C (second subject), with carboplatin, after two weeks of treatment
  Detectable levels of CTC: no detectable levels
[4]; Patient C, with carboplatin, after two weeks of treatment
  Reduction in EMT cells: 70%
[4]; Patient C, with carboplatin, following at least two weeks of treatment, initial count 45
  CAML count: 30
[4]; Patient D (first patient), with carboplatin, approximately 11 weeks of treatment
  CCR5 expression on cancer-associated cells: large reductions
[4]; Patient D (first subject), with carboplatin, following 16 weeks of treatment
  Detectable circulating tumor cells (CTC) or putative metastatic tumor cells in peripheral blood: no detectable
[4]; with carboplatin, C1D1
  Number of CTCs (PD-L1): 0
  Number of Apoptotic CTCs (CCR5): 0
  Number of CAMLs (CCR5): 0
  Number of CAMLs (PD-L1): 1
  Number of CTCs (CCR5): 0
  Number of EMTs (CCR5): 1
  Number of EMTs (PD-L1): 1
  CAML- Total: 1
  EMT-Total: 2
  Number of Apoptotic CTC (PD-L1): 0
  CTC-Total: 0
[4]; with carboplatin, C2D1
  Number of CTCs (PD-L1): 0
  Number of Apoptotic CTCs (CCR5): 0
  Number of CAMLs (CCR5): 1
  Number of CAMLs (PD-L1): 2
  Number of CTCs (CCR5): 0
  Number of EMTs (CCR5): 0
  Number of EMTs (PD-L1): 0
  CAML- Total: 3
  EMT-Total: 0
  Number of Apoptotic CTC (PD-L1): 0
  CTC-Total: 0
[4]; with carboplatin, C3D1
  Number of CTCs (PD-L1): 0
  Number of Apoptotic CTCs (CCR5): 0
  Number of CAMLs (CCR5): 3
  Number of CAMLs (PD-L1): 1
  Number of CTCs (CCR5): 0
  Number of EMTs (CCR5): 0
  Number of EMTs (PD-L1): 0
  Number of Apoptotic CTC (PD-L1): 0
[4]; with carboplatin, C4D1
  Number of CTCs (PD-L1): 0
  Number of Apoptotic CTCs (CCR5): 0
  Number of CAMLs (CCR5): 0
  Number of CAMLs (PD-L1): 1
  Number of CTCs (CCR5): 0
  Number of EMTs (CCR5): 0
  Number of EMTs (PD-L1): 0
  CAML- Total: 1
  EMT-Total: 0
  Number of Apoptotic CTC (PD-L1): 0
  CTC-Total: 0
[4]; with carboplatin, C5D1
  Number of CTCs (PD-L1): 0
  Number of Apoptotic CTCs (CCR5): 0
  Number of CAMLs (CCR5): 1
  Number of CAMLs (PD-L1): 2
  Number of CTCs (CCR5): 0
  Number of EMTs (CCR5): 0
  Number of EMTs (PD-L1): 0
  CAML- Total: 3
  EMT-Total: 0
  Number of Apoptotic CTC (PD-L1): 0
  CTC-Total: 0
[4]; with carboplatin, C6D1
  CAML- Total: 8
  EMT-Total: 0
  CTC-Total: 0
[4]; first patient of Phase 1b/2 trial, at 11 weeks of treatment
  Detectable circulating tumor cells (CTCs) or putative metastatic tumor cells in peripheral blood: no detectable
[4]; third subject, with carboplatin, first two weeks of treatment
  Decrease of total CTC+EMT counts: 75%
[5]
  Serious adverse events: no serious adverse events had been reported

## maraviroc
CCR5
  Cell killing mediated by DNA-damaging chemotherapeutic agents: dramatically enhanced
[2]; FIG. 1
  Lung metastasis / homing of breast cancer cells to the lungs in mouse model: block homing of breast cancer cells to the lungs; also recorded: inhibition of lung metastasis; also recorded: effectively blocked lung metastases
